# Reference: EP0238178B1, “Novel derivatives of erythromycylamine” (ELI LILLY AND COMPANY, priority 1986, dated 1987)
# Read-outs that look alike come from different tables or passages of the source.
# What was measured:
# Staphylococcus aureus = assay: Experimental bacterial infection in mice, ED50; type: in vivo; settings: Staphylococcus aureus, po, two doses, dose protecting 50% of animals, read-out: Oral ED50
# Procedure: (§1) The new derivatives of this invention have also shown in vivo antimicrobial activity against experimental bacterial infections. When two doses of test compound were administered to mice in experimental infections, the activity observed was measured as an EDso value [effective dose in mg/kg to protect 50% of the test animals: see Warren Wick, et al., J. Bacteriol. 81, 233-235 (1961)].
# Streptococcus pyogenes = assay: Experimental bacterial infection in mice, ED50; type: in vivo; settings: two doses, dose protecting 50% of animals; for ED50: Streptococcus pyogenes, po, read-out: Oral ED50
# Procedure: as §1
# Streptococcus pneumoniae = assay: Experimental bacterial infection in mice, ED50; type: in vivo; settings: two doses, dose protecting 50% of animals; for ED50: Streptococcus pneumoniae, po, read-out: Oral ED50
# Procedure: as §1
# Escherichia coli EC14 = assay: MIC, standard agar-dilution assay; type: cell-based; settings: read-out: MIC
# [1] = tested on: Haemophilus influenzae 76; assay: MIC, standard agar-dilution assay; type: cell-based; settings: Haemophilus influenzae 76, Ampicillin-resistant strain; read-out: MIC
# [2] = tested on: Streptococcus pyogenes C203; assay: MIC, standard agar-dilution assay; type: cell-based; settings: read-out: MIC
# [3] = tested on: Klebsiella pneumoniae X68; assay: MIC, standard agar-dilution assay; type: cell-based; settings: read-out: MIC
# [4] = tested on: Staphylococcus aureus X400; assay: MIC, standard agar-dilution assay; type: cell-based; settings: Staphylococcus aureus X400, Methicillin-resistant strain, inducibly-resistant to erythromycin; read-out: MIC
# Source text: (§2) In addition to excellent in vitro activity against erythromycin-sensitive bacteria, several members of this new series have shown in vitro activity against erythromycin-resistant strains. These include strains which are inducibly-resistant to erythromycin (S.. aureus V41 and X400 and S. epidermidis EPI1) and even strains which are constitutively-resistant (S. epidermidis 270).
# [5] = tested on: Staphylococcus aureus V41; assay: MIC, standard agar-dilution assay; type: cell-based; settings: Staphylococcus aureus V41, Penicillin-resistant strain, inducibly-resistant to erythromycin; read-out: MIC
# Source text: as §2
# [6] = tested on: Staphylococcus aureus S13E; assay: MIC, standard agar-dilution assay; type: cell-based
# [7] = tested on: Haemophilus influenzae C.L.; assay: MIC, standard agar-dilution assay; type: cell-based; settings: Ampicillin-sensitive strain, read-out: MIC
# [8] = tested on: Staphylococcus aureus X1.1; assay: MIC, standard agar-dilution assay; type: cell-based; settings: read-out: MIC
# [9] = tested on: Staphylococcus epidermidis 222; assay: MIC, standard agar-dilution assay; type: cell-based; settings: read-out: MIC
# [10] = tested on: Streptococcus sp. group D 2041; assay: MIC, standard agar-dilution assay; type: cell-based; settings: read-out: MIC
# [11] = tested on: Streptococcus sp. group D X66; assay: MIC, standard agar-dilution assay; type: cell-based
# [12] = tested on: Streptococcus pneumoniae Park I; assay: MIC, standard agar-dilution assay; type: cell-based; settings: read-out: MIC
# [13] = Streptococcus sp. group D X66, read-out: MIC
Structure (SMILES),ED50 (Staphylococcus aureus) [mg/kg],ED50 (Streptococcus pyogenes) [mg/kg],ED50 (Streptococcus pneumoniae) [mg/kg],MIC (Escherichia coli EC14) [µg/mL],MIC [1] [µg/mL],MIC [2] [µg/mL],MIC [3] [µg/mL],MIC [4] [µg/mL],MIC [5] [µg/mL],MIC [6] [µg/mL],MIC [7] [µg/mL],MIC [8] [µg/mL],MIC [9] [µg/mL],MIC [10] [µg/mL],MIC ([11]; Streptococcus) [µg/mL],Oral ED50 (Streptococcus pyogenes; oral) [mg/kg],Oral ED50 (Streptococcus pneumoniae; oral) [mg/kg],MIC [12] [µg/mL],"MIC [11, 13] [µg/mL]"
"CC[C@H]1OC(=O)[C@H](C)[C@@H](O[C@H]2C[C@@](C)(OC)[C@@H](O)[C@H](C)O2)[C@H](C)[C@@H](O[C@@H]2O[C@H](C)C[C@H](N(C)C)[C@H]2O)[C@](C)(O)C[C@@H](C)[C@H](NC)[C@H](C)[C@@H](O)[C@]1(C)O [Compound 1, 9-Deoxo-9-(methylamino)erythromycin]",43.8,21,35.4,32,1,0.06,64,64,64,0.125,0.5,1,0.25,1,0.125,,,,
"CCCCCCCCN[C@@H]1[C@H](C)[C@@H](O)[C@](C)(O)[C@@H](CC)OC(=O)[C@H](C)[C@@H](O[C@H]2C[C@@](C)(OC)[C@@H](O)[C@H](C)O2)[C@H](C)[C@@H](O[C@@H]2O[C@H](C)C[C@H](N(C)C)[C@H]2O)[C@](C)(O)C[C@H]1C [Compound 8, 9-Deoxo-9-(n-octylamino)erythromcin]",> 50,23.4,46.1,,1,0.015,,8,8,0.25,1,0.5,0.25,1,,38.3,> 50,0.015,0.06
"CCCCCCCCCCN[C@@H]1[C@H](C)[C@@H](O)[C@](C)(O)[C@@H](CC)OC(=O)[C@H](C)[C@@H](O[C@H]2C[C@@](C)(OC)[C@@H](O)[C@H](C)O2)[C@H](C)[C@@H](O[C@@H]2O[C@H](C)C[C@H](N(C)C)[C@H]2O)[C@](C)(O)C[C@H]1C [Compound 9, 9-Deoxo-9-(n-decylamino)erythromycin]",> 50,> 50,> 50,,1,0.015,,8,4,0.5,2,1,1,2,,,,0.015,0.25
"CCCCCCCCCCCCN[C@@H]1[C@H](C)[C@@H](O)[C@](C)(O)[C@@H](CC)OC(=O)[C@H](C)[C@@H](O[C@H]2C[C@@](C)(OC)[C@@H](O)[C@H](C)O2)[C@H](C)[C@@H](O[C@@H]2O[C@H](C)C[C@H](N(C)C)[C@H]2O)[C@](C)(O)C[C@H]1C [Compound 10, 9-Deoxo-9-(n-dodecylamino)erythromycin]",> 45,> 50,> 50,,4,0.5,,8,8,2,8,4,4,8,,,,0.06,1
"CC[C@H]1OC(=O)[C@H](C)[C@@H](O[C@H]2C[C@@](C)(OC)[C@@H](O)[C@H](C)O2)[C@H](C)[C@@H](O[C@@H]2O[C@H](C)C[C@H](N(C)C)[C@H]2O)[C@](C)(O)C[C@@H](C)[C@H](NCCC(C)C)[C@H](C)[C@@H](O)[C@]1(C)O [Compound 11, 9-Deoxo-9-[(3-methylbutyl)amino]erythromycin]",12.5,8.8,10.8,128,1,0.06,128,,,0.5,1,1,0.25,1,,,,0.03,0.125
"CC[C@H]1OC(=O)[C@H](C)[C@@H](O[C@H]2C[C@@](C)(OC)[C@@H](O)[C@H](C)O2)[C@H](C)[C@@H](O[C@@H]2O[C@H](C)C[C@H](N(C)C)[C@H]2O)[C@](C)(O)C[C@@H](C)[C@H](NCC2CCCCCCC2)[C@H](C)[C@@H](O)[C@]1(C)O [Compound 16, 9-Deoxo-9-[(cyclooctylmethyl)amino]erythromycin]",,,,64,1,< 0.008,,64,64,0.06,1,0.5,0.25,1,,,,,< 0.008
"CC[C@H]1OC(=O)[C@H](C)[C@@H](O[C@H]2C[C@@](C)(OC)[C@@H](O)[C@H](C)O2)[C@H](C)[C@@H](O[C@@H]2O[C@H](C)C[C@H](N(C)C)[C@H]2O)[C@](C)(O)C[C@@H](C)[C@H](NCC(C)(C)CO)[C@H](C)[C@@H](O)[C@]1(C)O [Compound 22, 9-Deoxo-9-[(3-hydroxy-2,2-dimethylpropyl)amino]erythromycin]",> 50,19.8,46.1,32,0.25,0.03,64,,,1,1,1,1,4,,,,0.015,0.25
"CC[C@H]1OC(=O)[C@H](C)[C@@H](O[C@H]2C[C@@](C)(OC)[C@@H](O)[C@H](C)O2)[C@H](C)[C@@H](O[C@@H]2O[C@H](C)C[C@H](N(C)C)[C@H]2O)[C@](C)(O)C[C@@H](C)[C@H](NCCC(C)CCCC(C)(C)OC)[C@H](C)[C@@H](O)[C@]1(C)O (stereo partly drawn) [Compound 24, 9-Deoxo-9-[(7-methoxy-3,7-dimethyloctyl)amino]erythromycin]",> 45.6,25,23.6,128,2,0.015,,64,64,0.25,1,0.5,0.25,2,,,,,0.03
"CC[C@H]1OC(=O)[C@H](C)[C@@H](O[C@H]2C[C@@](C)(OC)[C@@H](O)[C@H](C)O2)[C@H](C)[C@@H](O[C@@H]2O[C@H](C)C[C@H](N(C)C)[C@H]2O)[C@](C)(O)C[C@@H](C)[C@H](NCCOCCOC)[C@H](C)[C@@H](O)[C@]1(C)O [Compound 25, 9-Deoxo-9-[[2-(2-methoxyethoxy)ethyl]amino]erythromycin]",23.3,27.1,21.8,64,4,0.125,128,,,8,2,1,1,8,,,,0.015,0.25
